Laboratory results taken from patent publication US20260007639A1, “COMPOUNDS FOR THE TREATMENT OF NEUROMUSCULAR DISORDERS” (NMD PHARMA A/S, priority 2017, published 2026).

Key:
human CIC-1 channels = molecular target: T1, human CIC-1 channels (Homo sapiens, UniProt P35523); assay: Automated patch-clamp on human CIC-1 expressed in CHO cells: shift of half activation voltage ΔV1/2; assay type: cell-based; settings: compound in intracellular solution vs control cell patches; CHO cells expressing human CIC-1
T1 construct: host or cells: CHO (Chinese hamster ovary) cells constitutively expressing human ClC-1
T1 sequence (P35523 whole entry): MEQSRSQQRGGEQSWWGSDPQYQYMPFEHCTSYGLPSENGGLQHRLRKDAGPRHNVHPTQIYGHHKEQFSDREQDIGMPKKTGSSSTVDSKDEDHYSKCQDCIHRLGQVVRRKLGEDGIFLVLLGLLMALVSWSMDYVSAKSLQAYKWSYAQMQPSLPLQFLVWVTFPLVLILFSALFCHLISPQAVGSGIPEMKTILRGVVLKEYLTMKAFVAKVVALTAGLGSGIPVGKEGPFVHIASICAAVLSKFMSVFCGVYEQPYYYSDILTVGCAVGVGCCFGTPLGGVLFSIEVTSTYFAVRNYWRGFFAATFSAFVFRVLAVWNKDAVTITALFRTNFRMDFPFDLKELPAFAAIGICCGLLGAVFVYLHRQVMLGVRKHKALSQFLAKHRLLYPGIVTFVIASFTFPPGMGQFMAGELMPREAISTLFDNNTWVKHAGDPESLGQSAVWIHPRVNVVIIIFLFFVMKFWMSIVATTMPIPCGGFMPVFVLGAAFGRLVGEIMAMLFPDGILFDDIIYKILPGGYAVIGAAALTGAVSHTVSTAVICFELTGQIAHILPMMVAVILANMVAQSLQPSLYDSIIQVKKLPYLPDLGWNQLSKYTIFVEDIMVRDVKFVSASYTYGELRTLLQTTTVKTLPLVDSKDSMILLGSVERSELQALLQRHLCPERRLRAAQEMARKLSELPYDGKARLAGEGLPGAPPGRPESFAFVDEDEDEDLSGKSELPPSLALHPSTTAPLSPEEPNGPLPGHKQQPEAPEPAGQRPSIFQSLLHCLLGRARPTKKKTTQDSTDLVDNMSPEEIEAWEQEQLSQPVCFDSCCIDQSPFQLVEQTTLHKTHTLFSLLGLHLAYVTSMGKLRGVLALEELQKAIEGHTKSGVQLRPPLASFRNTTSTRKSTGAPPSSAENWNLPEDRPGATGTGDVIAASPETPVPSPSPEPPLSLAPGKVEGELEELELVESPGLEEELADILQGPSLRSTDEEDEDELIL
Procedure: FIGS. 13A-13B: FIG. 13A illustrates the voltage protocol used to evoke currents in whole cell patches of CHO cells expressing human CIC-1 channels.
Experiments were performed using an automated patch clamp system that allowed high throughput testing of whole cell patches together with both intracellular and extracellular addition of compound.
Automated whole cell patch clamp experiments were performed with the Qpatch 16 system (Sophion Bioscience, Ballerup, Denmark) at room temperature. Data acquisition and analysis were performed in the Qassay software (ver. 5.6, Odense).
To evoke CIC-1 currents in whole cell patches, the membrane potential was initially stepped from a holding potential of −30 mV to +60 mV for 100 ms and then to various test voltages (sweeps) ranging from +120 mV to −140 mV in steps of 20 mV for 300 ms. To obtain tail currents, the membrane potential was stepped to −100 mV after each test voltage for 300 ms and then relaxed to −30 mV for 2 sec between sweeps (FIG. 3).
I/V relationships for whole cell instant and steady state current amplitudes were obtained by plotting average current densities at the beginning and at the end of the 300 ms step against the membrane potential (FIG. 4).
In order to determine the relative overall open probability (Po), the instantaneous tail currents were normalized to the maximal tail current obtained following the most positive voltage step and plotted against the test voltage. Plots of normalized tail currents from each whole cell patch were then fitted to a Boltzmann function allowing determination of half activation voltages (V1/2, FIG. 5).
For automated patch clamp experiments extracellular solutions contained: 2 mM CaCl2), 1 mM MgCl2, 10 mM HEPES, 4 mM KCl, 145 mM NaCl, 10 mM Glucose, pH adjusted to 7.4 with NaOH (2 M). Osmolality adjusted to ˜320 using sucrose.
Intracellular solutions contained: 80 mM CsF, 60 mM CsCl, 5/1 mM KOH/EGTA, 10 mM HEPES, 10 mM NaCl, pH adjusted to 7.2 with NaOH (2 M). Osmolality adjusted to ˜320 mOsm using sucrose.
Cells used in patch clamp experiments were Chinese hamster ovary cells (CHO) constitutively expressing human CIC-1 channels. The amino acid sequence encoded by the cDNA used to create this cell line was identical to the translated sequence for GenBank accession number NM_000083.2. Cells were produced by Charles River (Catalogue CT6175, Cleveland OH, USA) in a cryopreserved format. Experiments were performed on the cells directly after thawing (3×10^6 cells used in each experiment).
To evaluate the compound effect on CIC-1, when applied directly to the intracellular side of the cell membrane, the half activation voltage, V1/2, was determined from whole cell patches with compound added to the intracellular solution and then compared to V1/2 determined from control cell patches with only vehicle added to the intracellular solution. Additionally, the effect of extracellular added compound was evaluated by determine V1/2 and steady state current amplitudes before and after exchanging the extracellular solution to contain compound.
The difference in half activation voltage of CIC-1 channels, ΔV1/2, was determined as the difference between the cell patches treated intracellularly with compound and control cells patches and is reported in Table 4 below. A positive shift in ΔV 1/2 is reflecting CIC-1 channel inhibition by the tested compound. P-values of <0.05 is considered significant.

rat soleus muscles [1] = assay: Recovery of force in isolated rat soleus nerve-muscle preparations after 115 nM tubocurarine, 50 μM compound (Table 8); settings: 40 mins exposure
Procedure: Force traces from a representative muscle stimulated to contract in 1) control condition before addition of neuromuscular blocking agent, 2) the force response to stimulation after 90 minutes incubation with Tubocurarine. […] The traces presented in FIG. 12A (1, 2, 3), correspond to the dotted lines in FIG. 12B, respectively.
Recovery of force is quantified as the percentage of the force prior to tubocurarine that is recovered by the compound.
The current invention relates to compounds that inhibit CIC-1 ion channels and increase muscle excitability and thereby improve muscle function in clinical conditions where muscle activation is failing. Such conditions result in loss of contractile function of skeletal muscle, weakness and excessive fatigue. In this series of experiments the compounds were tested for their ability to restore contractile function of isolated rat muscle when the neuromuscular transmission had been compromised akin to neuromuscular disorders.
Experimentally, soleus muscles from 4-5 wk old rats were isolated with the motor nerve remaining attached. The nerve-muscle preparations were mounted in experimental setups that enabled electrical stimulation of the motor nerve. Stimulation of the motor nerve led to activation of the muscle fibres and ensuing force production that was recorded.
After mounting the nerve-muscle preparation in the experimental setup, the contractile function of the muscle was initially assessed under the control conditions (FIG. 2A). […] The experimental condition mimics the failing neuromuscular transmission in a range of neuromuscular disorders. After addition of tubocurarine the contractile force declined over the next 90 mins to 10-50% of the control force. 50 μM of the test compound was then added and the contractile force recovered despite the continued presence of tubocurarine. To quantify the ability of the compound to restore force the percentage of the initial force that was restored was determined after 40 mins of compound exposure (FIG. 2B) and the point increase is reported in Table 8.

CIC-1 channels = molecular target: T2, CIC-1 channels (Rattus norvegicus, UniProt P35524); assay: Electrophysiological measurement of compound inhibition of CIC-1 (Gm) in rat soleus muscle fibres: EC50 (Table 7)
T2 sequence (P35524 1-994): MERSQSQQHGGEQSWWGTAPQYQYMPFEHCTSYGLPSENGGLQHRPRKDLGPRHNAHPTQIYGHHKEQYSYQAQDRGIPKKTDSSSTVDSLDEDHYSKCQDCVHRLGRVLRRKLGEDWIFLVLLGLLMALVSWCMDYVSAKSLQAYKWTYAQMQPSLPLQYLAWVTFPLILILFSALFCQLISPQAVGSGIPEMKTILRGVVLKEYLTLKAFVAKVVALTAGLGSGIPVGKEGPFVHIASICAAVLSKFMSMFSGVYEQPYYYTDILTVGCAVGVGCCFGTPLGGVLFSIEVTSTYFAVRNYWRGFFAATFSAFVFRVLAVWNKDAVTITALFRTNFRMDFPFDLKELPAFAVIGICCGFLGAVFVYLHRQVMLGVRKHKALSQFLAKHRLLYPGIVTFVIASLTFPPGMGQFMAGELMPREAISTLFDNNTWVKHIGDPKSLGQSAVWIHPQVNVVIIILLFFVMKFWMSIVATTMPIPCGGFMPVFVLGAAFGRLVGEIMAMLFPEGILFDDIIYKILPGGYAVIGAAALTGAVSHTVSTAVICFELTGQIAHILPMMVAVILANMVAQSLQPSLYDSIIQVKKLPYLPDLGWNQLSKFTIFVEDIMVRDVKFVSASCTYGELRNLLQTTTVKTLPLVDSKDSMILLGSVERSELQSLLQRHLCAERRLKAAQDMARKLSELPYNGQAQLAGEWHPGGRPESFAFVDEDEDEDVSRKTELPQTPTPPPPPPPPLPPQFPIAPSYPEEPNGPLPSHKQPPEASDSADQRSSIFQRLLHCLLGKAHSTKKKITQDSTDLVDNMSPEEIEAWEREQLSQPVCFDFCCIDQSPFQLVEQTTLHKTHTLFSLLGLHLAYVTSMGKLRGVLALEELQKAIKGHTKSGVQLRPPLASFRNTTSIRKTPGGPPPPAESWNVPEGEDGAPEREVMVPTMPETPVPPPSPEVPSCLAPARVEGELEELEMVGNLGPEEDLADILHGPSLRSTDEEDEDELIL

female Lewis rats = assay: In situ isometric hindlimb force in anaesthetised rats with neuromuscular transmission partially inhibited by Cisatracurium; assay type: in vivo, rat; settings: 80 Hz stimulation, Cisatracurium infusion
Procedure: Isometric hindlimb force was measured in 12-week old female Lewis rats in the presence and absence of compound.
Rats were placed under anesthesia with isoflurane (2-4%), intubated and subsequently connected to a micro ventilator (Microvent 1, Hallowell EMC, US). Two stimulation electrodes were inserted through the skin to stimulate the sciatic nerve. A small incision was made proximal to the ankle, to expose the Achilles tendon, which was tied by cotton string, and connected to a force transducer (Fort250, World Precision Instruments) with adjustable position (Vernier control). The Achilles tendon was then cut distal to the attached cotton string. The rat was placed on a heated pad, and to prevent movement artefacts from contraction of the ankle dorsiflexors, the foot was fixated by tape on a footplate.
Muscle contractile properties were assessed by applying an electrical current (under supramaximal voltage conditions) to the nerve and recording the force generated by the muscle. The muscle was stretched until maximal force was obtained, when assessed by 2 Hz stimulation. Isometric force was measured every 30 seconds at 12 Hz (Twitch), 10 pulses, and at every 5 minutes at 80 Hz (Tetanic) for 1 second (80 pulses). This stimulation pattern was employed throughout the experiment, expect in few cases where 80 Hz stimulation was replaced by 12 Hz (10 pulses). […] When the level of neuromuscular inhibition was stable, the test article was injected i.v. at the chosen concentration. The effect of test article was assessed on its ability to increase force generated from the stimulation pattern applied. The effect was assessed in the ability to increase force per se (tetanic, 80 Hz, stimulation), and the ratio between individual twitch peaks (12 Hz stimulation). The effect was monitored for at least 1 hour after injection of test article. In addition, the time from injection of test article to maximal effect on force (both twitch and tetanic) was noted and the time for the effect to disappear (return to baseline), if possible. When appropriate the infusion of neuromuscular blocking agent was ceased, with the stimulation pattern continued, and the return of force to control levels was monitored. Animals were sacrificed by cervical dislocation while still fully sedated.

rat soleus muscles [2] = assay: Tubocurarine concentration required to depress nerve-stimulated force by 50% (Kd,tub), combination with neostigmine or pyridostigmine (Table 4); settings: pre-incubation with 50 μM C8, 10 nM neostigmine or both
Procedure: Muscles from 4-week-old rats were stimulated to contract by activating the motor nerve with short duration pulses in field stimulation. Muscles contracted every 10 min for 2 s in response to 30 Hz stimulation. Four different experimental conditions were used. […] After this pre-incubation, increasing concentrations of tubocurarine were added to the bath solutions with 60 min (corresponding to six contractions) between each increase in tubocurarine. […] FIG. 5C similar to FIG. 5A but this muscle had been pre-incubated with neostigmine. […] The force integral (AUC) was determined at each tubocurarine concentration. Such AUC determinations were plotted against tubocurarine concentration for each muscle.
CIC-1 is a novel target in treatment of neuromuscular complications and it was therefore explored whether this approach for symptomatic treatment could be used in combination with existing symptomatic treatment approaches. […] To quantify the effect of compounds on tubocurarine sensitivity, the force at the different tubocurarine concentrations was determined. In plots of nerve-stimulated force against tubocurarine concentration (FIG. 5E) Kd, tub was determined by fitting four parameter sigmoidal functions to the data and the Kd, tub for the different compounds have been collected in Table 4.

rat soleus muscles [3] = assay: Recovery of nerve-stimulated force in isolated rat soleus muscles with ACh receptors inhibited by 2 μM rocuronium; settings: 2 μM rocuronium alone; 8 muscles
Procedure: In a separate series of experiments with 8 isolated rat soleus muscles, ACh receptors were inhibited using 2 μM rocuronium, which is a clinically used neuromuscular blocking agent. Under these conditions the nerve-stimulated force was reduced to 51±5% of force before rocuronium. […] This illustrates the potential of these compounds to be used as reversal agents.

SMILES | Δ1/2 (mV) (human CIC-1 channels) | Point increase (%) of initial force that was restored (rat soleus muscles [1]) | EC50 (CIC-1 channels) | average increase in tetanic force (female Lewis rats; 40.0 mg/kg i.v.) | average increase in tetanic force (female Lewis rats; 26.5 mg/kg i.v.) | nerve-stimulated force at different tubocurarine concentrations compared to control (rat soleus muscles [2]) | nerve-stimulated force, % of force before rocuronium (rat soleus muscles [3])
C[C@H](Oc1ccc(Br)cc1-c1ccno1)C(=O)O [Compound A-22, (2S)-2-[4-bromo-2-(1,2-oxazol-5-yl)phenoxy]propanoic acid] | 9.3 mV | 27% | 7.5 µM |  |  |  | 
O=C(O)[C@H](CC1CC1)Oc1ccc(Br)cc1-c1ccon1 [Compound A-33, (2S)-2-[4-bromo-2-(1,2-oxazol-3-yl)phenoxy]-3-cyclopropylpropanoic acid] | 15.1 mV | 35% | 4.6 µM |  |  |  | 
C[C@H](Oc1ccc(Cl)cc1-c1ccon1)C(=O)O [Compound A-34, (2S)-2-[4-chloro-2-(1,2-oxazol-3-yl)phenoxy]propanoic acid] | 8.1 mV | 43% | 2 µM |  |  |  | 
O=C(O)[C@H](CC1CC1)Oc1ccc(Cl)cc1-c1ccon1 [Compound A-41, (2S)-2-[4-chloro-2-(1,2-oxazol-3-yl)phenoxy]-3-cyclopropylpropanoic acid] |  | 25% | 4.3 µM | 36.4% |  |  | 
C[C@H](Oc1ccc(Br)cc1-c1cocn1)C(=O)O [Compound A-42, (2S)-2-[4-bromo-2-(1,3-oxazol-4-yl)phenoxy]propanoic acid] | 6.8 mV | 14% | 3.2 µM |  |  |  | 
CCOC[C@H](Oc1ccc(Br)cc1-c1ccon1)C(=O)O [Compound A-81, (2S)-2-[4-bromo-2-(1,2-oxazol-3-yl)phenoxy]-3-ethoxypropanoic acid] |  | 45% | 8.1 ± 1.2 µM |  | 52.9% |  | 
CN(C)C(=O)Oc1cccc([N+](C)(C)C)c1 [neostigmine, reference compound] |  |  |  |  |  | elevated nerve-stimulated force | 
C=CC[N+]1([C@H]2C[C@H]3[C@@H]4CC[C@H]5C[C@H](O)[C@@H](N6CCOCC6)C[C@]5(C)[C@H]4CC[C@]3(C)[C@H]2OC(C)=O)CCCC1 [rocuronium, reference compound] |  |  |  |  |  |  | 51±5%
